The record followed here is patent US4596811A, “Heterocyclic compounds, a process for their production and medicaments containing these compounds” (Ludwig Heumann & Co., GmbH, priority 1982, dated 1986).

In this experiment the target is T1, histamine-H2 receptors (isolated atrium) (Cavia porcellus, UniProt P47747).
T1 construct: in vitro on the isolated atrium of guinea pigs; from tissue; host or cells: isolated guinea pig atrium
T1 sequence (P47747 whole entry): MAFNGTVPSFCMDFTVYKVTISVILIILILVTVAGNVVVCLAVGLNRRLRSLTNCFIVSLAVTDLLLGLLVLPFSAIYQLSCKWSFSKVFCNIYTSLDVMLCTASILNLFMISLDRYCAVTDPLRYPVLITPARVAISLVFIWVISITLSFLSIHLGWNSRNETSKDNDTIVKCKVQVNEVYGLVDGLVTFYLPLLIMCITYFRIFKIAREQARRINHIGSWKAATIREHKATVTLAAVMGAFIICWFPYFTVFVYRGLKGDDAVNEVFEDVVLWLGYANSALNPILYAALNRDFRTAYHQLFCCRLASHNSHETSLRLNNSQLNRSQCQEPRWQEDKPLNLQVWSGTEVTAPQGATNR
The experiment in a line: H2-antagonistic activity, pA2-values in vitro on the isolated atrium of guinea pigs. The experiment is classed as cell-based. As to conditions: isolated guinea pig atrium, H2 antagonism. An excerpt: An accepted method for determining H2-antagonistic activity is to determine the pA2-values in vitro on the isolated atrium of guinea pigs (cf. Ariens, Molecular Pharmacology, Vol. 1, Academic Press, New York, 1964).
Broadly, the Kb is the equilibrium dissociation constant of an antagonist, usually derived from a functional assay. A high value points to a less potent antagonist. `CN(C)Cc1cc(CSCCC(=N)NS(=O)(=O)c2ccc(N)cc2)cs1` [Example 2, N-(p-aminobenzene-sulfonyl)-3-[(2-N,N-dimethylaminomethylthienyl-4)-methylthio]-propionamidine]: the Kb was 0.0794 µM. As for `N=C(CCCCOc1cccc(CN2CCCCC2)c1)NS(=O)(=O)c1ccc(N)cc1` [Example 10], the Kb is 0.112 µM. On to `N=C(CCSCc1csc(CN2CCCCC2)c1)NS(=O)(=O)c1ccc(N)cc1` [Example 12], for which the Kb was 0.0631 µM.
